{"source": "patent US20130261066A1", "about": "“TREATMENT OF INFLAMMATORY BOWEL DISEASES USING A TRIPEPTIDE” (THE RESEARCH FOUNDATION OF STATE UNIVERSITY OF NEW YORK, priority 2010, published 2013)", "key": {"[1]": {"tested_on": "TNBS-induced colitis", "assay": "TNBS-induced colitis (experimental Crohn's disease) in SJL/J mice", "format": "in vivo", "description": "TNBS (2,4,6-trinitro benzene sulfonic acid) induces a form of colitis in SJL/J mice that recapitulates Crohn's disease. The optimal dose of TNBS was determined to be 100 μl of a 2.5% ethanolic solution instilled intracolonically. SJL mice received 2.5% TNBS solution in 50% ethanol by intra-colonic instillation using a 3.5 F catheter, which was inserted 4 cm into the colon under mild ketamine/xylazine anesthesia. Mice received MC-12 25 mg/kg or vehicle ip twice a day for two days. Body weight was monitored daily and mice were euthanized on the third day when blood and colon tissues were collected as described above for further analysis.\n(§1) The fixed colon was cut into six equal fragments, dehydrated and embedded into paraffin. The tissue sections were stained with hematoxylin and eosin (H&E). The histological score was determined by two pathologists as described, based on the degree (0-3) and extent (0-3) of inflammation, crypt damage (0-4) and the area involved (0-4). The scores of each of the first three parameters were multiplied by the fourth and the sum of these three multiples was the final score (ranging from 0 to 40)."}, "[2]": {"tested_on": "DSS-induced colitis", "assay": "DSS-induced colitis in mice, MC-12 5 or 25 mg/kg ip or po (Example 4)", "format": "in vivo", "details": "for reduction of histological score compared to DSS control: p<0.01"}, "[3]": {"tested_on": "IL-1β", "assay": "Colon cytokine mRNA by real-time PCR, DSS mice", "format": "in vivo", "details": "MC-12 at either dose (5 or 25 mg/kg)", "description": "(§2) Expression of inflammatory cytokines TNF-α, IFN-γ, IL-1β, IL-6 and IL-10 in the colon was determined by measuring corresponding mRNA levels using real-time PCR. About 100 mg colon tissue were placed in 1 ml of cold Trizol (Invitrogen Life Technologies, Carlsbad, Calif.), immediately homogenized with a rotor power homogenizer, and RNA was extracted according to the manufacturer's instructions. Total RNA was retrotranscribed with M-MLV reverse transcriptase (Invitrogen Life Technologies, Carlsbad, Calif.) using random primers. Real-time quantitative PCR was performed in a CFD-3200 Opticon detector (BioRad, Hercules, Calif., USA) using QuantiTect SYBR Green PCR Kits (Qiagen, Valencia Calif., USA). The PCR cycling conditions were: 40 cycles of 60 seconds at 94° C., 30 seconds at 51.4° C. and 30 seconds at 72° C. PCR primers (forward and reverse primers) were designed based on published sequences: TNF-α: AGGCTGCCCCGACTACGT (SEQ ID NO:12) and […] (SEQ ID NO:13); IFN-γ: CAGCAACAGCAAGGCGAAA (SEQ ID NO:14) and CTGGACCT GTGGGTTGTTGAC (SEQ ID NO:15); IL-1β: […] (SEQ ID NO:16) and […] (SEQ ID NO:17); IL-6: […] (SEQ ID NO:18) and […] (SEQ ID NO:19); […]: […] (SEQ ID NO:20) and […] (SEQ ID NO:21); β-actin: […] (SEQ ID NO:20) and […] (SEQ ID NO:21). Relative expression levels of mRNA were normalized to β-actin."}, "[4]": {"tested_on": "IFN-γ", "assay": "Colon cytokine mRNA by real-time PCR, DSS mice", "format": "in vivo", "details": "MC-12 at either dose (5 or 25 mg/kg)", "description": "as §2"}, "[5]": {"tested_on": "IL-10", "assay": "Colon cytokine mRNA by real-time PCR, DSS mice", "format": "in vivo", "details": "MC-12 at either dose (5 or 25 mg/kg)", "description": "as §2"}, "[6]": {"tested_on": "TNF-α", "assay": "Colon cytokine mRNA by real-time PCR, DSS mice", "format": "in vivo", "details": "MC-12 at either dose (5 or 25 mg/kg)", "description": "as §2"}, "[7]": {"tested_on": "IL-6", "assay": "Colon cytokine mRNA by real-time PCR, DSS mice", "format": "in vivo", "details": "MC-12 at either dose (5 or 25 mg/kg)", "description": "as §2"}, "[8]": {"tested_on": "DSS-induced colitis", "assay": "DSS-induced colitis in mice, MC-12 5 or 25 mg/kg ip or po (Example 4)", "format": "in vivo", "details": "for reduction of histological score compared to DSS control: p<0.01", "description": "(§3) Female C57BL/6 and SJL/J mice (Taconic, Hudson, N.Y.), 7-9 weeks old, were kept under controlled temperature (25° C.) with a 12/12-hour light-dark cycle and free access to standard diet and drinking water. The mice were allowed to acclimate for 7 days before the start of experiments.\nThe mice received 2% dextran sulfate sodium (DSS, MW 36,000 to 50,000, MP Biomedicals, Solon, Ohio) in drinking water for 8 days; control mice received regular drinking water. During the period when DSS was administered, treated mice were given MC-12 at 5 or 25 mg/kg intraperitoneally (ip) whereas the control group was given saline ip. As above, the mice were weighed and monitored for rectal bleeding or prolapse daily. All mice were euthanized at the end of the study period. Blood samples were collected and colons were dissected and their length was measured. The middle part of colon was fixed in 4% neutralized formalin and the rest was frozen for molecular analyses. Paraffin-embedded tissue sections were stained and scored as above.\nas §1", "remark": "listed apart in the source"}, "[9]": {"tested_on": "NF-κB in NCM 460 cells (normal colon epithelial cells)", "assay": "NF-κB DNA binding activity (EMSA) in DSS-treated NCM460 cells", "format": "cell-based"}, "[10]": {"tested_on": "DSS-induced colitis", "assay": "DSS-induced colitis in mice, MC12 40 or 80 μg/mouse ip (Example 1)", "format": "in vivo", "description": "as §3\nThe mice received 2% dextran sulfate sodium (DSS, MW 36,000 to 50,000, MP Biomedicals, Solon, Ohio) in drinking water for 7 days; control mice received regular drinking water. During the period when DSS was administered, treated mice were given MC12 40 or 80 μg/mouse intraperitoneally (i.p.) whereas the control group was given saline i.p. The mice were weighed and monitored for rectal bleeding or prolapse daily. All mice were euthanized at the end of the study. Blood samples were collected and colons were dissected and their length was measured. The middle part of colon was fixed in 4% neutralized formalin and the rest was frozen for molecular analyses.\nParaffin-embedded tissue sections were stained with hematoxylin and eosin (H&E). In these sections, the histological score was determined based on epithelial denudation, loss of crypts, ulceration, edema and leukocyte infiltration using criteria that have been described previously (see Perretti, F. et al., 2009, Nat Rev Immunol 9:62-70)"}, "[11]": {"details": "2% DSS, MC12 40 or 80 μg/mouse ip"}}, "data": [{"substance": "Gln-Ala-Trp (QAW) [MC12]", "values": [{"measurement": "inflammatory cell infiltration and crypt loss (histology)", "setting": "[1]; 25 mg/kg bid for 2 d", "value": "decreased the inflammatory cell infiltration and crypt loss"}, {"measurement": "TNBS-caused shortening of colon length", "setting": "[1]; 25 mg/kg ip bid 2 d", "value": "did not prevent this effect"}, {"measurement": "reduction of body weight on day 3 compared to baseline", "setting": "[1]; 25 mg/kg ip bid 2 d, TNBS alone 18.2%", "value": 15.3, "unit": "%"}, {"measurement": "histological score (mean±SEM)", "setting": "[1]; 25 mg/kg ip bid 2 d, TNBS control 38.3±1.7, scale 0 to 40", "value": "23.3±3.3"}, {"measurement": "reduction of histological score compared to TNBS control", "setting": "[1]; 25 mg/kg ip bid 2 d, p<0.01", "value": 39.1, "unit": "%"}, {"measurement": "prevention of weight loss", "setting": "[1]; 25 mg/kg ip twice a day for two days", "value": "did not prevent weight loss"}, {"measurement": "reduction of histological score compared to DSS control", "setting": "[2]; 5 mg/kg po", "value": 50.2, "unit": "%"}, {"measurement": "DSS-induced colonic inflammation (H&E histology)", "setting": "[2]; 25 mg/kg orally", "value": "also decreased DSS-induced colonic inflammation"}, {"measurement": "reduction of histological score compared to DSS control", "setting": "[2]; 25 mg/kg po", "value": 48.4, "unit": "%"}, {"measurement": "increase in weight compared to baseline", "setting": "[2]; highest ip dose 500 μg/day, day 8", "value": 7.7, "unit": "%"}, {"measurement": "IL-1β mRNA level in colon", "setting": "[3]", "value": "essentially normalized"}, {"measurement": "IFN-γ mRNA level in colon", "setting": "[4]", "value": "below baseline"}, {"measurement": "IL-10 mRNA level in colon", "setting": "[5]", "value": "below baseline"}, {"measurement": "TNF-α mRNA level in colon", "setting": "[6]", "value": "essentially normalized"}, {"measurement": "IL-6 mRNA level in colon", "setting": "[7]", "value": "below baseline"}, {"measurement": "reduction of histological score compared to DSS control", "setting": "[8]; 5 mg/kg ip", "value": 48.9, "unit": "%"}, {"measurement": "DSS-induced colonic inflammation (H&E histology)", "setting": "[8]; 25 mg/kg ip", "value": "significantly decreased DSS-induced colonic inflammation"}, {"measurement": "reduction of histological score compared to DSS control", "setting": "[8]; 25 mg/kg ip", "value": 66.8, "unit": "%"}, {"measurement": "weight loss", "setting": "[8]; 2% DSS 8 days, MC-12 5 or 25 mg/kg", "value": "prevented such weight loss in a dose-dependent manner"}, {"measurement": "colon length (DSS-induced reduction)", "setting": "[8]; 2% DSS 8 days, MC-12 5 or 25 mg/kg, ip and po", "value": "prevented this reduction in colon length in a dose-dependent manner"}, {"measurement": "prevention of weight loss, ip compared to po", "setting": "[8]; 2% DSS 8 days, ip vs po", "value": "more effective in preventing weight loss when given ip compared to po"}, {"measurement": "DSS-induced NF-κB-DNA binding activity (NF-κB activation)", "setting": "[9]; 30 μM, listed as MC 12", "value": "significantly blocked this effect"}, {"measurement": "DSS-induced NF-κB-DNA binding activity (NF-κB activation)", "setting": "[9]; 30 μM, listed as MC-12", "value": "essentially eliminated NF-κB activation"}, {"measurement": "DSS-induced NF-κB-DNA binding activity (NF-κB activation)", "setting": "[9]; 300 μM, listed as MC 12", "value": "significantly blocked this effect"}, {"measurement": "DSS-induced NF-κB-DNA binding activity (NF-κB activation)", "setting": "[9]; 300 μM, listed as MC-12", "value": "essentially eliminated NF-κB activation"}, {"measurement": "DSS-induced colonic inflammation (H&E histology)", "setting": "[10]; 40 μg per mouse ip", "value": "significantly decreased DSS-induced colonic inflammation"}, {"measurement": "DSS-induced colonic inflammation (H&E histology)", "setting": "[10]; 80 μg per mouse ip", "value": "also decreased DSS-induced colonic inflammation"}, {"measurement": "weight loss", "setting": "[10]; 2% DSS 7 days, MC12 40 or 80 μg/mouse ip", "value": "dose-dependent reduction in weight loss"}, {"measurement": "colon length (DSS-induced reduction)", "setting": "[10]; [11]", "value": "prevented this reduction in colon length in a dose-dependent manner"}, {"measurement": "histological colitis score", "setting": "[10]; [11]", "value": "reduced the histological colitis score dose-dependently"}, {"measurement": "change in body weight", "setting": "[10]; 2% DSS, higher dose 80 μg/day ip, day 7", "value": "essentially no change in their weight"}, {"measurement": "histological colitis score, significance of reduction", "setting": "[10]; higher MC12 dose (80 μg)", "value": "statistically significant"}]}]}
